22 compounds from patent publication US20220289753A1, “SHP2 INHIBITORS” (IRBM S.P.A., priority 2019, published 2022) can be followed below.

Where two headings read alike, the source gives them in different places.

The subject of assay [1] is ERK phosphorylation in KYSE-520 cells. Kind of assay: Phospho-ERK cellular assay (Advanced phospho-ERK1/2 (Thr202/Tyr204) TR-FRET kit). Type of assay: cell-based. To be noted: Homo sapiens, KYSE-520, 2 h, read-out: pERK IC50. In outline: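 KYSE-520 cells were treated 2 h at 37° C with serially diluted compounds, then lysed. Phospho-ERK1/2 (Thr202/Tyr204) was detected by TR-FRET after overnight antibody incubation at room temperature. IC50 came from a four-parameter logistic fit; lower signal reflects greater SHP2 inhibition.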
In general terms: In TR-FRET formats the signal depends on donor and acceptor labels being close together.

The target in assay [2] is T1, SHP-2 enzyme (Met1-Leu525) (Homo sapiens, UniProt Q06124).
T1 construct: synthetized by Origene, Met1-Leu525, cat #TP750155; purchased Origene TP750155
T1 sequence (Q06124 1-525): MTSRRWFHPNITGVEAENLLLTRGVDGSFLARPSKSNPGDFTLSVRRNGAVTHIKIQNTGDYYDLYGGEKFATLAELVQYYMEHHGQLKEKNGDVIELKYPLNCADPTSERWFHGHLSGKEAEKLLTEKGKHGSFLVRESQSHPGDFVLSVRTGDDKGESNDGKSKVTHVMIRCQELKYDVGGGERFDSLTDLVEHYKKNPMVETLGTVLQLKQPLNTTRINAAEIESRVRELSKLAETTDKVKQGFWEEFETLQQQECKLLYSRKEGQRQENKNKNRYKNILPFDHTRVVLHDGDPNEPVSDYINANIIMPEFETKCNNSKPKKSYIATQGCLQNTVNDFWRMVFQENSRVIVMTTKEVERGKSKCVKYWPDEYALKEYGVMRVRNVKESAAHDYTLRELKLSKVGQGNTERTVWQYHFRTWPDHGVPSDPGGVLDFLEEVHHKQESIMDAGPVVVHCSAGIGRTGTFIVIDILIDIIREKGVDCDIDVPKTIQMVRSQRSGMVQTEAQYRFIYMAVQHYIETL
Kind of assay: SHP2 inhibition enzymatic assay (DiFMUP substrate, IRS1 peptide activation). To be noted: SHP2 wt; activated by 500 nM IRS1 peptide; 75 μM DiFMUP substrate. Type of assay: biochemical. In outline:
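SHP-2 (Met1-Leu525, 0.5 nM final) preincubated 30 min with compounds and IRS1 activating peptide in HEPES pH 7.2 buffer with NaCl, KCl, EDTA, tween-20, 5 mM DTT. DiFMUP then added for 30 min at room temperature and fluorescence read. IC50 from four-parameter logistic fit of % inhibition.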

Where [3] appears, read: KYSE-520 cells, 2 h at 37° C., TR-FRET.

A word on the IC50: it is the concentration that inhibits the measured activity by half. Take `Nc1nccc(Sc2cnc3[nH]c(N4CCC5(CC4)Cc4ccc(N6CCOCC6)cc4[C@H]5N)nc3n2)c1Cl` [Example 223, (S)-1′-(5-((2-amino-3-chloropyridin-4-yl)thio)-1H-imidazo[4,5-b]pyrazin-2-yl)-6-morpholino-1,3-dihydrospiro[indene-2,4′-piperidin]-1-amine]: the IC50 is above 5000 nM in assay [1] (setting [3]) and below 500 nM in assay [2].
Consider `N[C@@H]1c2ccccc2CC12CCN(c1nc3nc(Sc4ccnc(O)c4Cl)cnc3[nH]1)CC2` [Example 152, (S)-4-((2-(1-amino-1,3-dihydrospiro[indene-2,4′-piperidin]-1′-yl)-1H-imidazo[4,5-b]pyrazin-5-yl)thio)-3-chloropyridin-2-ol], for which the figures for the half-maximal inhibitory concentration (IC50) in assay [1] and in assay [2] were above 5000 nM and below 500 nM, respectively.
As to `Nc1nccc(Sc2cnc3[nH]c(N4CCC5(CC4)Cc4ccc(CF)cc4[C@H]5N)nc3n2)c1Cl` [Example 245, (S)-1′-(5-((2-amino-3-chloropyridin-4-yl)thio)-1H-imidazo[4,5-b]pyrazin-2-yl)-6-(fluoromethyl)-1,3-dihydrospiro[indene-2,4′-piperidin]-1-amine], the values for the IC50 in assay [1] (setting [3]) and in assay [2] were below 1000 nM and below 500 nM, respectively.
For `N[C@@H]1c2ccccc2CC12CCN(c1nc3nc(Sc4cccc5nonc45)cnc3[nH]1)CC2` [Example 213, (S)-1′-(5-(benzo[c][1,2,5]oxadiazol-4-ylthio)-1H-imidazo[4,5-b]pyrazin-2-yl)-1,3-dihydrospiro[indene-2,4′-piperidin]-1-amine], in that order: below 1000 nM and below 500 nM.
In the same order, the values of `Cn1ccc(Sc2cnc3nc(N4CCC5(CC4)Cc4ccccc4[C@H]5N)[nH]c3n2)c(Cl)c1=O` [Example 166, (S)-4-((2-(1-amino-1,3-dihydrospiro[indene-2,4′-piperidin]-1′-yl)-1H-imidazo[4,5-b]pyrazin-6-yl)thio)-3-chloro-1-methylpyridin-2(1H)-one] are below 1000 nM and below 500 nM.
In the same order, the values of `N[C@@H]1c2ccccc2CC12CCN(c1nc3nc(Sc4ccnnc4Cl)cnc3[nH]1)CC2` [Example 247, (S)-1′-(5-((3-chloropyridazin-4-yl)thio)-1H-imidazo[4,5-b]pyrazin-2-yl)-1,3-dihydrospiro[indene-2,4′-piperidin]-1-amine] are below 1000 nM and below 500 nM.
As to `N[C@@H]1c2ccccc2CC12CCN(c1nc3nc(Sc4ccc5cc[nH]c5c4)cnc3[nH]1)CC2` [Example 193, (S)-1′-(5-((1H-indol-6-yl)thio)-1H-imidazo[4,5-b]pyrazin-2-yl)-1,3-dihydrospiro[indene-2,4′-piperidin]-1-amine], the IC50 in assay [1] (setting [3]) was 1000 to 5000 nM; in assay [2], below 500 nM.
In the same order, the values of `N#Cc1ccc2c(c1)[C@@H](N)C1(CCN(c3nc4nc(Sc5ccnc(N)c5Cl)cnc4[nH]3)CC1)C2` [Example 256, (S)-1-amino-1′-(5-((2-amino-3-chloropyridin-4-yl)thio)-1H-imidazo[4,5-b]pyrazin-2-yl)-1,3-dihydrospiro[indene-2,4′-piperidine]-6-carbonitrile] are above 5000 nM and below 500 nM.
In the same order, the values of `Nc1nccc(Sc2cnc3[nH]c(N4CCC5(CC4)Cc4ccc(CO)cc4[C@H]5N)nc3n2)c1Cl` [Example 244, (S)-(1-amino-1′-(5-((2-amino-3-chloropyridin-4-yl)thio)-1H-imidazo[4,5-b]pyrazin-2-yl)-1,3-dihydrospiro[indene-2,4′-piperidin]-6-yl)methanol] are below 1000 nM and below 500 nM.
In the same order, the values of `N[C@@H]1c2ccccc2CC12CCN(c1nc3nc(Sc4cccc5c4C(F)(F)C(=O)N5)cnc3[nH]1)CC2` [Example 162, (S)-4-((2-(1-amino-1,3-dihydrospiro[indene-2,4′-piperidin]-1′-yl)-1H-imidazo[4,5-b]pyrazin-5-yl)thio)-3,3-difluoroindolin-2-one] are below 1000 nM and below 500 nM.
With `N[C@@H]1c2ccccc2CC12CCN(c1nc3nc(Sc4cc(O)ncc4Cl)cnc3[nH]1)CC2` [Example 241, (S)-4-((2-(1-amino-1,3-dihydrospiro[indene-2,4′-piperidin]-1′-yl)-1H-imidazo[4,5-b]pyrazin-5-yl)thio)-5-chloropyridin-2-ol], the figures for the IC50 in assay [1] (setting [3]) and in assay [2] were 1000 to 5000 nM and 500 to 3000 nM, respectively.
For `N[C@@H]1c2cc(F)ccc2CC12CCN(c1nc3nc(Sc4cccn5ccnc45)cnc3[nH]1)CC2` [Example 192, (S)-6-fluoro-1′-(5-(imidazo[1,2-a]pyridin-8-ylthio)-1H-imidazo[4,5-b]pyrazin-2-yl)-1,3-dihydrospiro[indene-2,4′-piperidin]-1-amine], in that order: 1000 to 5000 nM and below 500 nM.
In the same order, the values of `Nc1nccc(Sc2cnc3[nH]c(N4CCC5(CC4)Cc4cc(F)c(F)cc4[C@H]5N)nc3n2)c1Cl` [Example 188, (S)-1′-(5-((2-amino-3-chloropyridin-4-yl)thio)-1H-imidazo[4,5-b]pyrazin-2-yl)-5,6-difluoro-1,3-dihydrospiro[indene-2,4′-piperidin]-1-amine] are below 1000 nM and below 500 nM.
In the same order, the values of `N[C@@H]1c2ccccc2CC12CCN(c1nc3ncc(Sc4cccc5c4OCCO5)nc3[nH]1)CC2` [Example 167, (S)-1′-(6-((2,3-dihydrobenzo[b][1,4]dioxin-5-yl)thio)-1H-imidazo[4,5-b]pyrazin-2-yl)-1,3-dihydrospiro[indene-2,4′-piperidin]-1-amine] are below 1000 nM and below 500 nM.
In the case of `Nc1nccc(Sc2cnc3[nH]c(N4CCC5(CC4)Cc4cc(CO)ccc4[C@H]5N)nc3n2)c1Cl` [Example 252, (S)-(1-amino-1′-(5-((2-amino-3-chloropyridin-4-yl)thio)-1H-imidazo[4,5-b]pyrazin-2-yl)-1,3-dihydrospiro[indene-2,4′-piperidin]-5-yl)methanol], the IC50 in assay [1] (setting [3]) is below 1000 nM; in assay [2], below 500 nM.
In the same order, the values of `N[C@H]1c2ccncc2CC12CCN(c1nc3nc(Sc4ccnc(NC5CC5)c4Cl)cnc3[nH]1)CC2` [Example 197, (R)-1′-(5-((3-chloro-2-(cyclopropylamino)pyridin-4-yl)thio)-1H-imidazo[4,5-b]pyrazin-2-yl)-5,7-dihydrospiro[cyclopenta[c]pyridine-6,4′-piperidin]-5-amine] are 1000 to 5000 nM and below 500 nM.
In the same order, the values of `COc1c(Sc2cnc3nc(N4CCC5(CC4)Cc4ccc(F)cc4[C@H]5N)[nH]c3n2)ccnc1N` [Example 190, (S)-1′-(6-((2-amino-3-methoxypyridin-4-yl)thio)-1H-imidazo[4,5-b]pyrazin-2-yl)-6-fluoro-1,3-dihydrospiro[indene-2,4′-piperidin]-1-amine] are below 1000 nM and below 500 nM.
In the same order, the values of `N#Cc1ccc2c(c1)[C@H](N)C1(CCN(c3nc4nc(Sc5ccnc(N)c5Cl)cnc4[nH]3)CC1)C2` [Example 260, (R)-1-amino-1′-(5-((2-amino-3-chloropyridin-4-yl)thio)-1H-imidazo[4,5-b]pyrazin-2-yl)-1,3-dihydrospiro[indene-2,4′-piperidine]-6-carbonitrile] are below 1000 nM and below 500 nM.
For the compound `CC1(N)CCN(c2nc3nc(Sc4ccccc4Br)cnc3[nH]2)CC1` [Example 37, 1-(5-((2-bromophenyl)thio)-1H-imidazo[4,5-b]pyrazin-2-yl)-4-methylpiperidin-4-amine], the IC50 was 1000 to 5000 nM in assay [1] (setting [3]) and below 500 nM in assay [2].
As for `Nc1cc(Sc2cnc3nc(N4CCC5(CC4)Cc4ccccc4[C@H]5N)[nH]c3n2)c(Cl)cn1` [Example 185, (S)-1′-(6-((2-amino-5-chloropyridin-4-yl)thio)-1H-imidazo[4,5-b]pyrazin-2-yl)-1,3-dihydrospiro[indene-2,4′-piperidin]-1-amine], the IC50 in assay [1] (setting [3]) was below 1000 nM; in assay [2], below 500 nM.
For `CC1(N)CCN(c2nc3nc(Sc4cccc(Cl)c4Cl)ncc3[nH]2)CC1` [Example 144, 1-(2-((2,3-dichlorophenyl)thio)-7H-purin-8-yl)-4-methylpiperidin-4-amine], in that order: above 5000 nM and 500 to 3000 nM.
`CC1(N)CCN(c2nc3nc(Sc4ccccc4S(F)(F)(F)(F)F)cnc3[nH]2)CC1` [Example 74, 4-methyl-1-(5-((2-(pentafluoro-l6-sulfaneyl)phenyl)thio)-1H-imidazo[4,5-b]pyrazin-2-yl)piperidin-4-amine]: the IC50 in assay [1] (setting [3]) was 1000 to 5000 nM; in assay [2], below 500 nM.
